Tests used:
Type in all cases: cell-based
[1] = tested on: HeLa; test: MTT assay, HeLa; conditions: Homo sapiens, HeLa, 72 h, read-out: IC50 ± SD Cervical HeLa
Description: Table S1. The antiproliferative efficacy of the DML1-DML12 compounds on the proliferation of cervical cancer cell line.
Figure S1. The efficacy of DML6 in HeLa cancer cells. The cell-viability curve produced by HeLa cells treated with
vehicle (0 μM), 5 or 10 μM of DML6 after 72 h of incubation. Cell survival was determined using the MTT assay. The
IC50 values are represented as the means ± SD of three independent experiments performed in triplicate. […]

[2] = tested on: OV2008 cells; test: Reactive oxygen species detection (H2DCFDA); conditions: 5 or 20 μM, 24 h, vs vehicle
Description: The total intracellular level of reactive oxygen species (ROS) was determined by staining the cells with 2,7-dichlorofluorescein diacetate (H2DCFDA). In this assay, cellular esterases cleave the nonfluorescent H2DCFDA molecule to yield H2DCF, by removing the lipophilic moiety (a diacetate group). Subsequently, H2DCF is oxidized by ROS to 2′-7′dichlorofluorescein (DCF), which is a highly fluorescent dye. ROS levels were quantified based on the fluorescence level of DCF detected using EVOS microscope.
The compound, […] (H2DCFDA), was used to detect ROS as previously described. OV2008 cells were seeded at a density of 250,000 cells/ml. After 24 h of incubation with the vehicle, 5 or 20 µM of DML6, the cells were incubated with H2DCFDA for 30 min at 37 °C. The cells were washed 3 times with 1X PBS for 5 min. The levels of reactive oxygen species were then determined based on the fluorescence level of the oxidized DCFDA dye (excitation at 485 nm and emission at 535), using a EVOS digital fluorescent microscope at 20× magnification.

[3] = tested on: OV2008 cells; test: Cell cycle analysis, flow cytometry with propidium iodide; conditions: for percentage of cells in the G2 phase / percentage of cells in the G1 phase: 24 h; for percentage of cells in the G2 phase: vehicle 4.18%; for percentage of cells in the G1 phase: vehicle 85.99%
Description: Cell cycle analysis was conducted using flow cytometry cell cycle analysis with propidium iodide (PI) as previously described. OV2008 cells were plated into 6-well plates at 2.5 × 10^5 cells/well. The cells were incubated with the vehicle, 5 or 20 μM of DML6 for 24 h. The next day, the cells were trypsinized with 0.25% trypsin, 2.21 mM EDTA, 1X, washed, counted, and resuspended in 1ml of ice-cold PBS. The cells were then stained with 200 µL (50 µg/ml stock solution propidium iodide (PI) dye and incubated for at least 15 min. The distribution of the cells in each phase of the cell cycle after incubation with the vehicle or DML6 was determined using A BD FACSCanto™ flow cytometer (BD Biosciences, Becton-Dickinson, San Jose, CA, USA) and analyzed using FCS Express 7 plus De Novo software (Glendale, CA, USA).

[4] = tested on: caspase-3/7 in OV2008 cells; test: Time-dependent apoptosis induction (Caspase-3/7 Green reagent)
Description: Cell Event™ Caspase-3/7 Green Detection Reagent from (Catalog # C10423, Life Technologies, Carlsbad, CA, USA), which is a novel fluorogenic substrate for activated caspase-3/7 that is compatible with living cells, was used to determine apoptosis activation in real-time in OV2008 cells incubated with DML6. Briefly, OV2008 cells were seeded in 96-well plates at a density of 1 × 10^3 cell/well. Twenty-four hours later, the cells were incubated with the vehicle (DMEM media with 10% FBS and 1% penicillin and streptomycin), 5 or 20 µM of DML6 for 72 h. Five micromolar of the apoptosis-detecting reagents were added to the cells immediately after DML6 and were incubated for up to 72 h at 37 °C. Fluorescence was determined every 24h using a live cell imaging system (IncuCyte Zoom, Essen Bioscience, Ann Arbor, MI, USA, using an absorption/emission maximum of ~502/530 nm.

[5] = tested on: Bax; test: Western blot, Bax; conditions: OV2008, 5 and 20 μM, 24 h, vs vehicle
Description: (§1) The OV2008 cells were lysed to obtain total cellular protein fractions using Mammalian Protein Extraction Reagent (Catalog # 78501, M-PER™, Thermo Fisher Scientific, Waltham, MA, USA). The cells were seeded in […] at a density of 1 × 10^6 and incubated with 5 or 20 µM of DML6 or 1 µM of doxorubicin (Catalog # T1-2-, TargetMol, Boston, MA, USA) (a positive control) for 24 h. The following day, the cells were washed with ice-cold PBS, scraped using a cell scrapper and collected in Eppendorf tubes. The tubes were centrifuged at 1500 RPM at 4 °C for 5 min. The solution was discarded and replaced with 70 µL of the cell lysis buffer (M-PER reagent, 100 mM Sodium Orthovanadate (NaOV) at a final concentration of 2.5 mM) and a 100X protease inhibitor cocktail (Catalog # P8340, Sigma-Aldrich, St. Louis, MO, USA, final concentration of 1X, containing of aprotinin, bestatin, E-64, leupeptin and pepstatin). Thirty minutes later, the resulting solution was centrifuged at 10,000 RPM at 4 °C for 5 min and the supernatant was collected. The protein concentration of the cell extracts was determined using the bicinchoninic acid (BCA) (Catalog # 786-570, G-Biosciences, Saint Louis, MO, USA) quantification assay. […] Finally, the amount of protein in each blot was quantified using the Image J software (NIH, Bethesda, MD, USA). All data were calculated as a ratio to β-actin.

[6] = tested on: caspase-7; test: Western blot, cleaved caspase-7; conditions: OV2008, 5 or 20 µM, vs vehicle
Description: as §1

In the case of `CN(C)c1ccc(/C=C/C(=O)c2ccc(Cl)cc2Cl)cc1` [DML6, (E)-1-[2,4-dichlorophenyl]-3-(4-(dimethylamino)phenyl)prop-2-en-1-one], the IC50 [1] is reported as 9.08 ± 0.69 µM, the “levels of DCF fluorescence (ROS)” value [2] is reported as “significantly higher” and the “percentage of cells in the G2 phase” value ([3]; 5 μM) is reported as 42.56%. The “percentage of cells in the G1 phase” value ([3]; 5 μM) was 16.01%, the “percentage of cells in the G2 phase” value ([3]; 20 μM) was 59.96% and the “percentage of cells in the G1 phase” value ([3]; 20 μM) was 27.84%. The “change of percentage of cells in the sub G1 phase” value ([3]; 5 or 10 µM, vs vehicle) was “neither 5 or 10 µM of DML6 significantly altered”, the “incubation time required to induce apoptosis” value ([4]; 5 µM) was “≈ 48 h” and the “incubation time required to induce apoptosis” value ([4]; 20 µM) was < 24 h. For the same molecule, the “apoptosis induction by activating caspase-3 and caspase-7” value ([4]; 5 or 20 μM, time-dependent, vs vehicle) was “significantly induced apoptosis”, the “expression of the pro-apoptotic protein Bax” value [5] was “significantly increased the expression” and the “cleavage (activation) of caspase-7” value [6] was “significantly increased the cleavage”.
